The subject of data set [1] is monoamine oxidase A and B (MAO-A and MAO-B). Briefly: Stability in the presence of monoamine oxidases (human liver mitochondria preparation). Also noted: half-life / microsomal CLint: dose or concentration left out as unconfirmed. The following applies: for Remaining (t = 60 min) / half-life / microsomal CLint: human liver mitochondria; for half-life / microsomal CLint: human, pH 7.4. Here is the method:
Liver Mitochondria Incubations. Human liver mitochondria (Xenotech H0610.M) were used.

Data set [2] concerns the target T1, 5-HT2B (Homo sapiens, UniProt P41595).
T1 construct: host or cells: HEK293
Kind of data set: FLIPR Ca2+ flux agonist assay at 5-HT2B. It counts as cell-based. The following applies: for 5-HT2B % Act @ Max Dose: Ca2+ flux, HEK293, max dose. Here is the method: (§1) A solution of 250 mM probenecid in 1 mL FLIPR assay buffer was prepared fresh. This was combined with a fluorescent dye (Fluo-4 Direct™) to make a final assay concentration of 2.5 mM. […] The fluorescent dye was then added to the assay plate along with assay buffer to a final volume of 40 μL. The cell plate was incubated for 50 min at 37° C. and 5% CO2 and placed into the FLIPR Tetra along with the compound plate. 10 μL of references and compounds were then transferred from the compound plate into the cell plate and the fluorescent signal was read.
(In general: Calcium assays in cells follow changes in intracellular calcium, usually with a dye or a luminescent sensor.)

Data set [3] has as its target T2, 5-HT1A (Homo sapiens, UniProt P08908).
T2 construct: host or cells: CHO cells
T2 sequence (P08908 1-422): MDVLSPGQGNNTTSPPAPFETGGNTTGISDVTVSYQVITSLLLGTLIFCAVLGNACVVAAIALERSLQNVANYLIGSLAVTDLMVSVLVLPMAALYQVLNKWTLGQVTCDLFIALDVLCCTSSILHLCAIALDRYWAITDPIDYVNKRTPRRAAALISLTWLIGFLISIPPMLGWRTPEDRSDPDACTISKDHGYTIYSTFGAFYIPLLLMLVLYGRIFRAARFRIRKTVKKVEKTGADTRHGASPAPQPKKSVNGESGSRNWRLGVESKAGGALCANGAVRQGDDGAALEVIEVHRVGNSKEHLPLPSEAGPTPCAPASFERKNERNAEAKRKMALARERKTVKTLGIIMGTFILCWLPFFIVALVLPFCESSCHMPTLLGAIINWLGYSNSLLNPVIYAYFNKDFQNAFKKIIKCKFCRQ
Kind of data set: FLIPR Ca2+ flux agonist assay at 5-HT1A. The class given is cell-based. The following applies: for 5-HT1A % Act @ Max Dose: Ca2+ flux, CHO cells. The procedure:
as §1

The nature of data set [4]: Stability in mouse brain homogenate. It counts as in vitro ADME, male CD-1 mice. The following applies: mouse brain homogenate, 1 μM, 37° C.; for half-life at 1 µM: male, CD-1. Here is the method:
Disclosed compounds were tested for stability in mouse brain homogenate (Table 7). There was widely variable stability among the test compounds under the conditions of the experiment.
(§2) Mouse Brain Homogenate Stability. Frozen mouse brain homogenate (pooled from male CD-1 mice, BioreclamationIVT, MSE00BRAINMZA) was thawed in a water bath at 37° C. immediately prior to use. Positive controls and test compounds (final concentration in incubation medium=1 μM for test compounds and 2 μM for controls, all with 2% DMSO) were incubated in duplicate for each time point (0, 10, 30, 60, and 120 min) in the mouse brain homogenate at a total reaction volume of 100 μL at 37° C. At the end of each incubation period, reactions were immediately quenched with 400 μL of acetonitrile containing internal standard (200 ng/mL tolbutamine and 200 ng/mL labetalol) and mixed thoroughly. Plates were then sealed, shaken for 20 min, and centrifuged at 4,000 rpm and 4° C. for 20 min. Aliquots of 50 μL of each supernatant were diluted into 100 μL of water and the mixtures were then shaken again for 10 min.

Data set [5] can be described thus: Stability in rat brain homogenate. The class given is in vitro ADME, male Sprague Dawley rats. As to conditions: rat brain homogenate, 1 μM, 37° C.; for half-life at 1 µM: male, Sprague Dawley. Here is the method: Disclosed compounds were tested for stability in rat brain homogenate (Table 8). There was widely variable stability among the test compounds under the conditions of the experiment.
as §2, with “Rat” for “Mouse”, “rat” for “mouse”, “Sprague Dawley rats,” for “CD-1 mice,”, “RAT00BRAINMZA)” for “MSE00BRAINMZA)”

The target in data set [6] is 5-HT2A (Homo sapiens, UniProt P28223). Kind of data set: FLIPR Ca2+ flux agonist assay at 5-HT2A. On the set-up: host or cells: HEK293. As to conditions: for 5-HT2A % Act @ Max Dose: Ca2+ flux, HEK293, max dose. The class given is cell-based. Here is the method: as §1
Data set [7] is described as follows: Metabolic stability in human liver microsomes (HLM). Also noted: microsomal CLint / half-life: dose or concentration left out as unconfirmed. As to conditions: both, human, pooled human liver microsomes, pH 7.4. For orientation: Liver microsomes are a subcellular fraction often used to study metabolism.
The mark [8] stands for this setting: human liver mitochondria 0.30 mg protein/mL, 37° C.

Each structure is given as a SMILES string. Some results are limits rather than exact numbers.

T1 sequence (P41595 whole entry, species assumed): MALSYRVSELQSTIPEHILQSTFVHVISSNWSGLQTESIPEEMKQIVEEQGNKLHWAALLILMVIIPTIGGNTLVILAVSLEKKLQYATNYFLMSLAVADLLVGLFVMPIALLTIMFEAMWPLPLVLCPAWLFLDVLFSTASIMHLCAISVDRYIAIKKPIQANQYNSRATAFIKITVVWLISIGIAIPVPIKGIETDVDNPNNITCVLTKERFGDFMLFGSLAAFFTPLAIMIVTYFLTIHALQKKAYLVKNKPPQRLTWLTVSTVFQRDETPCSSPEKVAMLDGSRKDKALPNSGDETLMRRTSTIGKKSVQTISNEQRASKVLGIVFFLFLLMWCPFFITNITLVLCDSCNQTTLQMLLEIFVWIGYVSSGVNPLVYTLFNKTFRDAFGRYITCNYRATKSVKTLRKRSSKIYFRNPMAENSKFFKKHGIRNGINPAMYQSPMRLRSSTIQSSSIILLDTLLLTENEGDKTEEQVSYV
Sequence of 5-HT2A (P28223 whole entry): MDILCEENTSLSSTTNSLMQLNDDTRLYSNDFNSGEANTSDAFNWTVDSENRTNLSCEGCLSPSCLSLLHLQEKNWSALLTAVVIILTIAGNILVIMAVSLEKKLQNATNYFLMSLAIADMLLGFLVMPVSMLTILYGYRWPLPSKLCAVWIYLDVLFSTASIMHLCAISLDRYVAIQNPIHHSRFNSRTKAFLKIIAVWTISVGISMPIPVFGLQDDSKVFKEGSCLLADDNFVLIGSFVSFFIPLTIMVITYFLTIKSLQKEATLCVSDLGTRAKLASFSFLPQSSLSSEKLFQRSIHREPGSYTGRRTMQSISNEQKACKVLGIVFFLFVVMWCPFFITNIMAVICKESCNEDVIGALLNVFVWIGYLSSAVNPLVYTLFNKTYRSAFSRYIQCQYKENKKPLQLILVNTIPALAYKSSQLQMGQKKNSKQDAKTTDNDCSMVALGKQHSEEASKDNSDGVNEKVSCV

Usually half-life stands for how long it takes for the measured level to halve. Broadly, the microsomal CLint is the capacity of the preparation to metabolise the compound, expressed as a volume cleared per time. What is called EC50 is the concentration at which the effect is half-maximal. As for `CNCCc1c[nH]c2c(F)ccc(O)c12` [Compound 34, 7-fluoro-3-(2-(methylamino)ethyl)-1H-indol-4-ol], in data set [1], the “Remaining (t = 60 min)” value was determined as 6.4%, the half-life was 15 min and the microsomal CLint stood at 154 µL/min/mg. In data set [2], the EC50 is more than 10000 nM and the “5-HT2B % Act @ Max Dose” value was determined as 8.09%. In data set [3], the EC50 was more than 100000 nM and the “5-HT1A % Act @ Max Dose” value was found to be 36.72%. In addition, in data set [4], the half-life at 1 µM amounted to 21.7 min and the “% Compound Remaining (after 120 min)” value turned out to be 1.6%. In addition, in data set [5], the half-life at 1 µM came to 3.6 min and the “% Compound Remaining (after 120 min)” value was 0%. In data set [6], a half-maximal response (EC50) required 16.2 nM and the “5-HT2A % Act @ Max Dose” value came to 77.43%. Besides, in data set [7], the half-life was 6.6 min and the microsomal CLint is 209 µL/min/mg.

With `Oc1cccc2[nH]cc(CCNCCF)c12` [Compound 7, 3-(2-((2-fluoroethyl)amino)ethyl)-1H-indol-4-ol], in data set [1], the “Remaining (t = 60 min)” value worked out at 85.2%, the half-life was more than 145 min and the microsomal CLint was less than 15.9 µL/min/mg. In data set [2], a half-maximal effect (EC50) was put at 375 nM and the “5-HT2B % Act @ Max Dose” value was 20.76%. In addition, in data set [3], the EC50 was more than 100000 nM and the “5-HT1A % Act @ Max Dose” value was 42.13%. In data set [4], the half-life at 1 µM was 177 min and the “% Compound Remaining (after 120 min)” value is reported as 61.8%. Also, in data set [5], the half-life at 1 µM was more than 289 min and the “% Compound Remaining (after 120 min)” value was found to be 77.1%. Besides, in data set [6], the 50% effective concentration (EC50) was 47.2 nM and the “5-HT2A % Act @ Max Dose” value is 86.8%. Moreover, in data set [7], the half-life came out at 77 min and the intrinsic metabolic clearance (microsomal CLint) worked out at 18 µL/min/mg.

Consider `CNCCc1c[nH]c2ccc(F)c(O)c12` [Compound 26, 5-fluoro-3-(2-(methylamino)ethyl)-1H-indol-4-ol], for which, in data set [1], the “Remaining (t = 60 min)” value is 0.1%, the half-life amounted to 6.3 min and the microsomal CLint came to 369 µL/min/mg. Besides, in data set [2], the “5-HT2B % Act @ Max Dose” value is on record as 13.87%. Also, in data set [3], the EC50 was 3490 nM and the “5-HT1A % Act @ Max Dose” value came out at 74.21%. For the same molecule, in data set [4], the half-life at 1 µM stood at 1.7 min and the “% Compound Remaining (after 120 min)” value came to 0%. In addition, in data set [5], the half-life at 1 µM was 2.2 min and the “% Compound Remaining (after 120 min)” value is reported as 0%. In data set [6], it took 21 nM to reach a half-maximal effect (EC50) and the “5-HT2A % Act @ Max Dose” value came to 86.9%. In data set [7], this molecule came in with a half-life of 0.9 min and a microsomal CLint of 1520 µL/min/mg.

Regarding `COc1ccc2[nH]cc(CCN(C)C)c2c1` [Compound 5-MeO-DMT, reference compound], in data set [1] (setting [8]), the “CLint(MAO)” value came to 43.6 µL/min/mg. In addition, the figures for the t1/2 in data set [1] (setting [8]), in data set [4] and in data set [5] were 52.9 min, more than 289.1 min and 14.4 min, respectively. Besides, the “stability in the presence of MAO (in words)” value in data set [1] (human liver mitochondria preparation) was “rapidly metabolized by MAO”. In addition, the “Remaining (t = 60 min)” value in data set [1] came out at 47.1%. For the same molecule, the “5-HT2B % Act @ Max Dose” value in data set [2] came out at 20.5%. In addition, the “5-HT1A % Act @ Max Dose” value in data set [3] is recorded as 78.8%. In addition, the figures for the “% Compound Remaining (after 120 min)” value in data set [4] and in data set [5] were 91.2% and 0.3%, respectively.

For the molecule `C=CCNCCc1c[nH]c2cccc(O)c12` [Compound 23, 3-(2-(allylamino)ethyl)-1H-indol-4-ol], in data set [1], the “Remaining (t = 60 min)” value is 83.5% and the half-life is more than 145 min. In data set [4], the half-life at 1 µM is 127 min and the “% Compound Remaining (after 120 min)” value came out at 49.6%. In data set [5], the half-life at 1 µM was found to be 126 min and the “% Compound Remaining (after 120 min)” value came to 52.4%. In data set [7], this molecule displayed a half-life of 118 min and a microsomal CLint of 11.8 µL/min/mg.

For the origin of these results see patent publication US20260234107A1, “TRYPTAMINES AND METHODS OF TREATING MOOD DISORDERS” (priority 2022, published 2026).
